Key:
BRD4 = BRD4 (Homo sapiens (Human), UniProt O60885); assay: TR-FRET in-vitro binding assay for BRD4; details: 45 nM His-Brd4(44-477), acetyl-histone H4 (AcK 5, 8, 12, 16) peptide
Method: (§1) TR-FRET In-Vitro Binding Assays for BRD2, BRD3, and BRD4: All assays were performed in 384-well microtiter plates. […] Liquid handling and incubation steps were done on an Innovadyne Nanodrop Express equipped with a robotic arm (Thermo CatX, Perkin Elmer/Caliper Twister II) and an incubator (Liconic STX40, Thermo Cytomat 2C450). The assay plates were prepared by addition of 50 nl per well of compound solution in 90% DMSO HummingBird nanodispenser (Zinsser Analytic). […] Reactions were incubated at 30° C. for 35 minutes. […] After 35 minutes incubation at 30° C., plates were measured in a Perkin Elmer EnVision multilabel reader. […] The stock solutions were stored at […] if not used immediately. For the test procedure the vials were defrosted and identified by a scanner whereby a working sheet was generated that guided the subsequent working steps. Compound dilutions were made in 96 well plates. This format enabled the assay of maximally […] at 8 concentrations (single points) including 4 reference compounds, if desired (known BET inhibitors from the prior art, for this and other assays of the type disclosed herein). The dilution protocol included the production of “pre-dilution plates”, “master plates” and “assay plates”. Polypropylene 96-well plates were used as pre-dilution plates. […] All dilution steps were done on a HamiltonSTAR robot. […] Identical “assay plates” were then prepared by pipetting 50 nL each of compound dilutions of the “master plates” into 384-well “assay plates” by means of a HummingBird 384-channel dispenser. These plates were used directly for the assay which was performed in a total volume of 13.55 μL.

BRD3 = BRD3 (Homo sapiens (Human), UniProt Q15059); assay: TR-FRET in-vitro binding assay for BRD3; details: 45 nM His-Brd3(20-477), acetyl-histone H4 (AcK 5, 8, 12, 16) peptide
Method: as §1

CREBBP = CREBBP (Homo sapiens (Human), UniProt Q92793); assay: AlphaScreen in-vitro binding assay for CREBBP; details: 324 nM His-CREBBP (1081-1197), acetyl-histone H4 (AcK 5, 8, 12) peptide
Method: AlphaScreen In-Vitro Binding Assay for CREBBP
In order to assess bromodomain selectivity, we set up a binding assay using the bromodomain encoded by the CREBBP gene. […] The assay was started by stepwise addition of 4.5 μL per well of bromo domain protein (50 mM HEPES, pH 7.5, 0.005% Tween20, 0.02% BSA, 150 mM NaCl, 324 nM His-CREBBP (1081-1197) (custom production at Viva Biotech Ltd.)) and 4.5 μL per well of peptide solution (50 mM HEPES, pH 7.5, 0.005% Tween20, 0.02% BSA, 150 mM NaCl, 120 nM acetyl-histone H4 (AcK 5, 8, 12) (Biosyntan GmbH)). Reactions were incubated at 30° C. for 35 minutes. Subsequently 4.5 μL per well detection mix (50 mM HEPES, pH 7.5, 0.005% Tween20, 0.02% BSA, 150 mM NaCl, 45 μg/ml Ni-chelate acceptor beads, 45 μg/mL streptavidin-donor beads) (Perkin Elmer)) were added. After 60 minutes incubation at room temperature, plates were measured in a Perkin Elmer EnVision multilabel reader. IC50 values were determined from percent inhibition values at different compound concentrations by non-linear regression analysis.
Test compounds were dissolved in DMSO (10 mM) and transferred into 1.4 mL flat bottom or V-shaped Matrix tubes carrying a unique 2D matrix. The stock solutions were stored at […] if not used immediately. For the test procedure the vials were defrosted and identified by a scanner whereby a working sheet was generated that guided the subsequent working steps. Compound dilutions were made in 96 well plates. This format enabled the assay of maximally […] at 8 concentrations (single points) including 4 reference compounds, if desired (known BET inhibitors from the prior art, for this and other assays of the type disclosed herein). The dilution protocol included the production of “pre-dilution plates”, “master plates” and “assay plates”.
Polypropylene 96-well plates were used as pre-dilution plates. A total of 4 pre-dilution plates were prepared including 10 test compounds each on the plate positions A1-A10, one standard compound at A11 and one DMSO control at […]. All dilution steps were done on a HamiltonSTAR robot.
30 μL of individual compound dilutions including standard compound and controls of the 4 “pre-dilution plates” were transferred into a 384-well “master plate” including the following concentrations 10000, […], 1000, 300, 100, 30, 10 and 3 μM, respectively in 90% of DMSO.
Identical “assay plates” were then prepared by pipetting 50 nL each of compound dilutions of the “master plates” into 384-well “assay plates” by means of a HummingBird 384-channel dispenser. These plates were used directly for the assay which was performed in a total volume of 13.55 μL.

MV-4-11 = assay: Cell growth inhibition assay (CellTiter-Glo), MV-4-11; type: cell-based, human; details: MV-4-11 cells, 4 days; for GI50: Homo sapiens, MV4-11, 96 h, half-maximal growth inhibition; for MV-4-11 TGI: total growth inhibition
Method: (§2) Cell Growth Inhibition Assay
(§3) The human leukemia cell lines MV-4-11, THP-1 and K-562 were employed to characterize the effect of BET inhibitors on cellular proliferation and viability. Cells were obtained from the American Type Culture Collection (ATCC) and cultured at 37° C. in a humidified 5% CO2 incubator in the following media: MV-4-11: DMEM high glucose (Animed #1-26F01-I), 10% FCS (Animed #2-01F26-I), 4 mM L-Glutamine (Animed #5-10K50), 1 mM Sodium Pyruvate (Animed # G03625P), 1× Penicillin-Streptomycin (Animed # F12478P); K-562: Iscove's MEM (Animed #1-28F16-I), 10% FCS (Animed #2-01F26-I), 4 mM L-Glutamine (Animed #5-10K50), 1× Penicillin-Streptomycin (Animed # F12478P); THP-1: RPMI-1640 (Animed #1-41F01-I), 10% FCS (Animed #2-01F26-I), 2 mM L-Glutamine (Animed #5-10K50), 10 mM HEPES (Animed #5-31F100), 1 mM Sodium Pyruvate (Animed # G03625P), 1× Penicillin-Streptomycin (Animed # F12478P). The AML lines MV-4-11 and THP-1 are very sensitive to BET inhibitors and show massive cell death upon BET inhibition (Zuber et al., Nature, 478 (2011), 524-8). Compound-mediated suppression of cell proliferation/viability was assessed by quantification of cellular ATP levels using the CellTiter-Glo (CTG) reagent (Promega). Briefly, cells were seeded in 20 μl fresh medium into 384-well plates, followed by addition of 5 μL medium containing compound dilutions at 5-fold their final intended concentration. Dose-response effects were assessed by 3-fold serial dilutions of the test compound, starting at 10 μM. Following incubation of the cells for 4 days at 37° C. and 5% CO2, the effect of inhibitors on cell viability was quantified following addition of 20 μl CTG and luminescence quantification (integration time: 100 ms) as per vendor manual, using a correspondingly equipped Tecan M200 multi-mode platereader (TECAN, Switzerland). For data analysis, the assay background value determined in wells containing medium, but no cells, was subtracted from all data points. To enable differentiation of cytotoxic from cytostatic compounds, the number of viable cells is assessed relative to that observed at the time of compound addition using a separate cell plate (day 0). The effect of a particular test compound concentration on cell proliferation/viability is expressed as percentage of the background- and day 0-corrected luminescence reading obtained for cells treated with vehicle only (DMSO, 0.1% final concentration), which is set as 100%, whereas that luminescence reading for wells containing medium is set as −100%. Compound concentrations leading to half-maximal (IC50) and total growth inhibition (TGI) were determined using standard four parameter curve fitting.

THP-1 = assay: Cell growth inhibition assay (CellTiter-Glo), THP-1; type: cell-based, human; details: THP-1 cells, 4 days; for GI50: Homo sapiens, 96 h, half-maximal growth inhibition; for THP-1 TGI: total growth inhibition
Method: as §2, §3

K-562 = assay: Cell growth inhibition assay (CellTiter-Glo), K-562; type: cell-based, human; details: K-562 cells, 4 days; for GI50: Homo sapiens, K562, 96 h, half-maximal growth inhibition; for K-562 TGI: total growth inhibition
Method: as §2, §3

BRD3, sequence (Q15059 20-477): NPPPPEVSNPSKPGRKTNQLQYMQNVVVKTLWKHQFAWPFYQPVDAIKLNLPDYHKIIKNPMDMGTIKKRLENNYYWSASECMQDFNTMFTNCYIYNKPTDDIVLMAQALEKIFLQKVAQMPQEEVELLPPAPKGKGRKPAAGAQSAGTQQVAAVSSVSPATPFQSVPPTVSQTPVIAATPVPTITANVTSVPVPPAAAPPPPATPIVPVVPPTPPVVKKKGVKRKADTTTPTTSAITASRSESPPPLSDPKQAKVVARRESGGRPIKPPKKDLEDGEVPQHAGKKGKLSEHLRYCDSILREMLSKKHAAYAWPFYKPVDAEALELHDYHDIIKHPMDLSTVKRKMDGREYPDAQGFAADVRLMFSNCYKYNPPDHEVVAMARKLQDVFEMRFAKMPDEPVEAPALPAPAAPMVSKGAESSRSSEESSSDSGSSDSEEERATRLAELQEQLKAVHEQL
CREBBP, sequence (Q92793 1081-1197): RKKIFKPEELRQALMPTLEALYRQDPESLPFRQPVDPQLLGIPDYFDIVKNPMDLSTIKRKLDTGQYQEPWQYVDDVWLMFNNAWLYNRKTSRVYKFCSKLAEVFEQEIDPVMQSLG

Structure (SMILES) | IC50 (BRD4) | IC50 (BRD3) | IC50 (CREBBP) | GI50 (MV-4-11) | MV-4-11 TGI (MV-4-11) | GI50 (THP-1) | THP-1 TGI (THP-1) | GI50 (K-562) | K-562 TGI (K-562)
COc1ncccc1-c1cc2c(n1C)C(c1ccc(Cl)cc1)N(c1cc(C)c3nnc(C)n3c1)C2=O (stereo in doubt) [Example 135, (R)-6-(4-chlorophenyl)-5-(3,8-dimethyl-[1,2,4]triazolo[4,3-a]pyridin-6-yl)-2-(2-methoxypyridin-3-yl)-1-methyl-5,6-dihydropyrrolo[3,4-b]pyrrol-4(1H)-one] | 14 nM | 21 nM | 470 nM | 6.08 nM | 12.44 nM | 6.4 nM | 14.95 nM | 21.4 nM | >10000 nM
Cc1cc(N2C(=O)c3cc(C4=CCOCC4)n(C)c3C2c2ccc(Cl)cc2)cn2c(C)nnc12 (stereo in doubt) [Example 137, (R)-6-(4-chlorophenyl)-2-(3,6-dihydro-2H-pyran-4-yl)-5-(3,8-dimethyl-[1,2,4]triazolo[4,3-a]pyridin-6-yl)-1-methyl-5,6-dihydropyrrolo[3,4-b]pyrrol-4(1H)-one] | < 11 nM | 13 nM | 590 nM | 10 nM | 18.75 nM | 11.1 nM | 22.75 nM | 31.1 nM | >10000 nM
Cc1cc(N2C(=O)c3c(C4CC4)cn(C4COC4)c3C2c2ccc(Cl)cc2)cn2c(C)nnc12 (centres unmarked) [Example 18, 6-(4-chlorophenyl)-3-cyclopropyl-5-(3,8-dimethyl-[1,2,4]triazolo[4,3-a]pyridin-6-yl)-1-(oxetan-3-yl)-5,6-dihydropyrrolo[3,4-b]pyrrol-4(1H)-one] | 12 nM | – | – | 2.86 nM | 8.13 nM | 4.63 nM | 13.35 nM | 16.4 nM | >10000 nM
Cc1cc(N2C(=O)c3c(C4CC4)cn(C)c3C2c2ccc(Cl)cc2)cn2c(C)nnc12 (centres unmarked) [Example 35, 6-(4-chlorophenyl)-3-cyclopropyl-5-(3,8-dimethyl-[1,2,4]triazolo[4,3-a]pyridin-6-yl)-1-methyl-5,6-dihydropyrrolo[3,4-b]pyrrol-4(1H)-one] | – | 15 nM | 6100 nM | 4.08 nM | 8.67 nM | 8.94 nM | 17.85 nM | 45.9 nM | >10000 nM
Cc1cc(N2C(=O)c3c(C4CC4)cn(C)c3[C@H]2c2ccc(Cl)cc2)cn2c(C)nnc12 [Example 36, (R)-6-(4-chlorophenyl)-3-cyclopropyl-5-(3,8-dimethyl-[1,2,4]triazolo[4,3-a]pyridin-6-yl)-1-methyl-5,6-dihydropyrrolo[3,4-b]pyrrol-4(1H)-one] | – | 15 nM | 4100 nM | 2.15 nM | 6.22 nM | 3.36 nM | 10.91 nM | 17.9 nM | >10000 nM
Cc1cc2c(n1C)C(c1ccc(Cl)cc1)N(c1cc(Cl)c(=O)n(C)c1)C2=O (centres unmarked) [Example 74, 5-(5-chloro-1-methyl-6-oxo-1,6-dihydropyridin-3-yl)-6-(4-chlorophenyl)-1,2-dimethyl-5,6-dihydropyrrolo[3,4-b]pyrrol-4(1H)-one] | 23 nM | – | – | 90.1 nM | 142 nM | 92.7 nM | 171.5 nM | 273 nM | >10000 nM
Cn1ccc2c1C(c1ccc(Cl)cc1)N(c1cc(Cl)c(=O)n(C)c1)C2=O (centres unmarked) [Example 76, 5-(5-chloro-1-methyl-6-oxo-1,6-dihydropyridin-3-yl)-6-(4-chlorophenyl)-1-methyl-5,6-dihydropyrrolo[3,4-b]pyrrol-4(1H)-one] | 37 nM | – | – | 108 nM | 178 nM | 118 nM | 238 nM | 368 nM | >10000 nM
CC(=O)Nc1cn(C)c2c1C(=O)N(c1cc(C)c3nnc(C)n3c1)[C@@H]2c1ccc(Cl)cc1 [Example 136, (R)—N-(6-(4-chlorophenyl)-5-(3,8-dimethyl-[1,2,4]triazolo[4,3-a]pyridin-6-yl)-1-methyl-4-oxo-1,4,5,6-tetrahydropyrrolo[3,4-b]pyrrol-3-yl)acetamide] | – | – | 1400 nM | 19.8 nM | 39.5 nM | 33.7 nM | 79.2 nM | 119 nM | >10000 nM

— patent US9550796B2, “Pyrrolopyrrolone derivatives and their use as BET inhibitors” (NOVARTIS AG, priority 2013, dated 2017)
